Reference: patent US20150265682A1, “THERAPEUTIC METHODS AND COMPOSITIONS FOR TREATING DIABETES” (Orient Europharma Co., Ltd., priority 2014, published 2015)

Experiments:
[1] = test system: normal, T1DM and T2DM mice; experiment: Plasma insulin levels before and after treatment; format: in vivo, ICR mice
Description: The 4-week-old male ICR mice were purchased from the Animal Center of the College of Medicine, National Taiwan University (Taipei, Taiwan) with delicate humane care. This animal study was conducted by following the University ethical guidelines and the ‘Guide for the Care and Use of Laboratory Animals’ published by the US National Institutes of Health (NIH publication no. 85-23, revised 1996). The animal experiments were approved by the Institutional Animal Care and Use Committee (IACUC) of the National Taiwan University (IACUC No. 20110073). Animals were housed in a room at the constant temperature, 22±1° C., with 12 hours light and dark cycles.
(§1) After three days of acclimatization, the mice had free access to a standard rodent chow (normal mice), a standard rodent chow after single […] streptozotocin (STZ) intraperitoneal injection (T1DM mice), and a fat-rich chow diet and fructose-sweetened water (T2DM mice) for 4 weeks. The induction of Type 1 DM was assessed and confirmed when the mice had plasma glucose levels ≧350 mgdL^−1, accompanied with polyuria, hyperphagia and decreased body weight. The induction Type 2 DM in the mice was assessed by measuring fasting plasma glucose levels and confirmed when plasma glucose level was ≧150 mgdL^−1 after the 4-week induction. The animals were assigned randomly into three groups, with seven animals in each group. In group I, the mice were treated with vehicle, 2% DMSO in normal saline, as the negative control. In group II, the mice were intraperitoneally treated with borapetoside A (0.1-10 mgkg^−1). In group Ill, the positive control, the mice received intraperitoneally metformin (300 mgkg^−1; Sigma Chemical Co., St. Louis, Mo., U.S.A.) or insulin (0.5 IUkg^−1; Insulin Actrapid® HM; Novo Nordisk, Denmark). In the acute study, mice under anesthesia received a single intraperitoneal administration of borapetoside A, negative control, or positive control. In the subacute study, mice received intraperitoneal administrations of borapetoside A, vehicle, or insulin twice a day for seven days.
Blood samples were collected from the orbital vascular plexus of the mice under anesthesia. Blood samples were then centrifuged at 13000 rpm for 5 min, and the plasma samples were collected and kept on ice prior to the assay. The plasma glucose concentration was measured by Glucose Kit Reagent (Biosystems S. A., Barcelona, Spain) following the manufacturer's instructions, and the insulin levels were estimated using mouse insulin ELISA kit (Mercodia AB, Uppsala, Sweden).

[2] = test system: IR, Akt, AS160, GLUT2 and PEPCK in liver of mice with type 1 DM; experiment: Western blot of insulin signaling pathway in liver after 7-day borapetoside A; format: in vivo, ICR mice; settings: type 1 DM mice; 10 mgkg^−1 twice a day for 7 days
Description: as §1
Western blot analysis was carried out by known methods with a slight modification. Briefly, tissues were homogenized in T-PER® Tissue Protein Extraction Reagent (Pierce Biotechnology, Rockford, Ill.) with Halt™ Protease Inhibitor Single-Use Cocktail (Pierce Biotechnology, Rockford, Ill.). Liver homogenates were prepared by mechanical homogenization (Polytron PT3100, Luzernerstrasse, Switzerland). After centrifuging the homogenates at 10,000 g for 30 minutes, the protein concentrations were determined by using a BCA Protein Assay Kit (Pierce Biotechnology, Rockford, Ill.). Later, 60 μg of protein preparations were applied on 10% sodium dodecyl sulfate-polyacrylamide gel for electrophoresis and then transferred to polyvinylidene difluoride membranes (Millipore, Billerica, Mass.). The membranes were analysed by using the antibodies against phospho-insulin receptor β (IRβ) (Tyr^1345), phospho-Akt (Ser^473), phosphor-AS160 (Thr^642), AS160 (Cell Signaling Technology, Beverly, Mass.), IRβ, Akt, β-Actin (Santa Cruz Biotechnology, Santa Cruz, Calif.), GLUT2 (Abcam, Cambridge, UK), and PEPCK (a gift from Professor DK Granner), respectively. Chemiluminescence detection and image analysis was performed with UVP-Biochimie Bioimager and Lab Works software (UVP, Upland, Calif.). The intensity of each band was quantified with ImageQuant.

C[C@@]12C[C@@H](c3ccoc3)OC(=O)[C@@H]1C[C@@H]1OC(=O)[C@@]3(O)[C@@H](O[C@@H]4O[C@H](CO)[C@@H](O)[C@H](O)[C@H]4O)CC[C@@H]2[C@@]13C [Borapetoside A, borapetoside A]
Plasma insulin Before-treatment ([1]; Normal mice, 0.1 mg kg^−1 group): 61.0 ± 4.6 pmol/L | Plasma insulin After-treatment ([1]; Normal mice, 0.1 mg kg^−1 i.p.): 68.3 ± 4.4 pmol/L | Plasma insulin Before-treatment ([1]; Normal mice, 0.3 mg kg^−1 group): 63.4 ± 3.9 pmol/L | Plasma insulin After-treatment ([1]; Normal mice, 0.3 mg kg^−1 i.p.): 129.4 ± 22.0 pmol/L | Plasma insulin Before-treatment ([1]; Normal mice, 1 mg kg^−1 group): 66.1 ± 5.4 pmol/L | Plasma insulin After-treatment ([1]; Normal mice, 1 mg kg^−1 i.p.): 118.8 ± 10.1 pmol/L | Plasma insulin Before-treatment ([1]; Normal mice, 3 mg kg^−1 group): 64.4 ± 3.6 pmol/L | Plasma insulin After-treatment ([1]; Normal mice, 3 mg kg^−1 i.p.): 121.2 ± 14.2 pmol/L | Plasma insulin Before-treatment ([1]; Normal mice, 10 mg kg^−1 group): 68.9 ± 1.3 pmol/L | Plasma insulin After-treatment ([1]; Normal mice, 10 mg kg^−1 i.p.): 108.2 ± 2.9 pmol/L | Plasma insulin Before-treatment ([1]; T1DM mice, 0.1 mg kg^−1 group): 22.9 ± 0.1 pmol/L | Plasma insulin After-treatment ([1]; T1DM mice, 0.1 mg kg^−1 i.p.): 22.7 ± 0.2 pmol/L | Plasma insulin Before-treatment ([1]; T1DM mice, 0.3 mg kg^−1 group): 22.9 ± 0.1 pmol/L | Plasma insulin After-treatment ([1]; T1DM mice, 0.3 mg kg^−1 i.p.): 22.7 ± 0.3 pmol/L | Plasma insulin Before-treatment ([1]; T1DM mice, 1 mg kg^−1 group): 23.1 ± 0.2 pmol/L | Plasma insulin After-treatment ([1]; T1DM mice, 1 mg kg^−1 i.p.): 23.0 ± 0.2 pmol/L | Plasma insulin Before-treatment ([1]; T1DM mice, 3 mg kg^−1 group): 23.1 ± 0.2 pmol/L | Plasma insulin After-treatment ([1]; T1DM mice, 3 mg kg^−1 i.p.): 23.0 ± 0.0 pmol/L | Plasma insulin Before-treatment ([1]; T1DM mice, 10 mg kg^−1 group): 23.1 ± 0.1 pmol/L | Plasma insulin After-treatment ([1]; T1DM mice, 10 mg kg^−1 i.p.): 23.0 ± 0.1 pmol/L | Plasma insulin Before-treatment ([1]; T2DM mice, 0.1 mg kg^−1 group): 140.5 ± 4.1 pmol/L | Plasma insulin After-treatment ([1]; T2DM mice, 0.1 mg kg^−1 i.p.): 134.5 ± 9.3 pmol/L | Plasma insulin Before-treatment ([1]; T2DM mice, 0.3 mg kg^−1 group): 133.0 ± 4.2 pmol/L | Plasma insulin After-treatment ([1]; T2DM mice, 0.3 mg kg^−1 i.p.): 149.0 ± 9.5 pmol/L | Plasma insulin Before-treatment ([1]; T2DM mice, 1 mg kg^−1 group): 126.8 ± 5.7 pmol/L | Plasma insulin After-treatment ([1]; T2DM mice, 1 mg kg^−1 i.p.): 123.7 ± 9.6 pmol/L | Plasma insulin Before-treatment ([1]; T2DM mice, 3 mg kg^−1 group): 138.3 ± 3.6 pmol/L | Plasma insulin After-treatment ([1]; T2DM mice, 3 mg kg^−1 i.p.): 184.3 ± 14.6 pmol/L | Plasma insulin Before-treatment ([1]; T2DM mice, 10 mg kg^−1 group): 134.9 ± 3.5 pmol/L | Plasma insulin After-treatment ([1]; T2DM mice, 10 mg kg^−1 i.p.): 205.3 ± 22.2 pmol/L | PEPCK expression in liver [2]: significant decrease | expression of GLUT2 in liver [2]: increased | phosphorylated AS160 in liver [2]: increased | phosphorylated Akt in liver [2]: increased | phosphorylated IR in liver [2]: increased
